Experimental data from article PMC8518391, “Synthesis and Biological Evaluation of Dantrolene‐Like Hydrazide and Hydrazone Analogues as Multitarget Agents for Neurodegenerative Diseases” (Chemmedchem, 2021).

Tests used:
hMAO B [1] = target: T1, hMAO B (Homo sapiens, UniProt P27338); test: biochemical; format: biochemical
T1 construct: purchased Sigma Aldrich
T1 sequence (P27338 1-520): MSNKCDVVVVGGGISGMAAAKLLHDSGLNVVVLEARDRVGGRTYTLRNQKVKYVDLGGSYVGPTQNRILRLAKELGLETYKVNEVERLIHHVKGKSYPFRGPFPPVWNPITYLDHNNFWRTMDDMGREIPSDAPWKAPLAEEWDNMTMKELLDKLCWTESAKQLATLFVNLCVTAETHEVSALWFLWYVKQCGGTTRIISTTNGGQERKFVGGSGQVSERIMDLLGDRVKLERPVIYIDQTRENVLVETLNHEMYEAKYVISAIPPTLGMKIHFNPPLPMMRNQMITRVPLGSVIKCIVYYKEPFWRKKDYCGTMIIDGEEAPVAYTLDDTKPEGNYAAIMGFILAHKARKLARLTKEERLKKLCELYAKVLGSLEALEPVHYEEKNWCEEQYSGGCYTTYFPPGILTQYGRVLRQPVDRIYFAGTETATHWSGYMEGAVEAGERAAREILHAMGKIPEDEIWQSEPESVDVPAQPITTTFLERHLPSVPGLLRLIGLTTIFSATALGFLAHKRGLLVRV

hMAO A = target: T2, hMAO A (Homo sapiens, UniProt P21397); test: biochemical
T2 construct: purchased Sigma Aldrich
T2 sequence (P21397 1-527): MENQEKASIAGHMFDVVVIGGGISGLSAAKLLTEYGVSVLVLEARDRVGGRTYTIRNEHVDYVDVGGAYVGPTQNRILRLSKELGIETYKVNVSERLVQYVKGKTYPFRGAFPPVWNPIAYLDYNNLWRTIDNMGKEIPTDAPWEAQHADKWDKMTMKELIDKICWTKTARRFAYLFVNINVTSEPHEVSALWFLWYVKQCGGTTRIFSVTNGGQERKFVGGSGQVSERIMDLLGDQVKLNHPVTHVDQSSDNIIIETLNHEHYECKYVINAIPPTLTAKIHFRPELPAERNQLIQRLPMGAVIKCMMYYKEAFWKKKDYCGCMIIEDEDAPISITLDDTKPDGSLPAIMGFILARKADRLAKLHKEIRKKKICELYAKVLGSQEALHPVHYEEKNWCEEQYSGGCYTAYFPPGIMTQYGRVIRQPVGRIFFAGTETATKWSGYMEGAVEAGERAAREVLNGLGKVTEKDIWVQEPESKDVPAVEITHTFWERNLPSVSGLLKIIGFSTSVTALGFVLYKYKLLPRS
Source text: (§1) Readings were made with Infinite M1000 Pro plate reader (Tecan, Cernusco s.N., Italy) and statistical regressions with Prism software (GraphPad Prism version 5.00 for Windows, GraphPad Software, San Diego, CA, USA).

hAChE = target: T3, hAChE (Homo sapiens, UniProt P22303); test: biochemical; conditions: read-out: % inhibition at 10 μM hAChE
T3 construct: purchased Sigma Aldrich
T3 sequence (P22303 32-614): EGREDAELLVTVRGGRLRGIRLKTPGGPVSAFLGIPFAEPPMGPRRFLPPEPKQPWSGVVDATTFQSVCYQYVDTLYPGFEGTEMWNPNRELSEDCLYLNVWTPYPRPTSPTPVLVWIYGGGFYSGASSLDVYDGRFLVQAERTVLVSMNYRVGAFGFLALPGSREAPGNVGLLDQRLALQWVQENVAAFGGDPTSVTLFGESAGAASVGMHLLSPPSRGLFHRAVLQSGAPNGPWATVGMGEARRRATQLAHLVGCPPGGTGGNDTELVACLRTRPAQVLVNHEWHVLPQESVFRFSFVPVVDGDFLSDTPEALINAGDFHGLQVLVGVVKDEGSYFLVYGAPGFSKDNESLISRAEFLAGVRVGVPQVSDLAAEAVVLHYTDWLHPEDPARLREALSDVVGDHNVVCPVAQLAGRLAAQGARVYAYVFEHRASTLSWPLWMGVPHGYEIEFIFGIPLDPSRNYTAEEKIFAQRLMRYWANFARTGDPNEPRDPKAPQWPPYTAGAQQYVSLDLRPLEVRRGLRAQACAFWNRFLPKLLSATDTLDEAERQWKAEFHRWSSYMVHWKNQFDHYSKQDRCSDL
Source text: as §1

[2] = RP-HPLC lipophilicity index log k’; format: physicochemical; conditions: MeOH/phosphate buffer pH 7.4; methanol/PBS 60:40 v/v
Source text: To investigate a possible correlation between MAO inhibitory potency and lipophilicity,[7] we calculated log P with three different programs (ChemDraw 15.0; ALOG PS 2.1; ChemSketch 2017, see Table S1 in Supporting Information) and compared the calculated values with experimental lipophilicity indexes as assessed by reversed‐phase (RP) HPLC in isocratic conditions for the majority of compounds. The log of capacity factors (log k’) measured by RP‐HPLC using a mixture of methanol/PBS (60 : 40, v/v) as the mobile phase are reported in Tables 1 and 2, along with Clog P values calculated with ChemDraw. These calculated lipophilicity descriptors correlated with the experimental log k’ values (n=13, r ^2=0.901) better than the other log Ps calculated by ALOG PS and ChemSketch computational tools (r ^2 equal 0.705 and 0.568, respectively). As shown by the scatter plots in Figure 4 and Figure S1 in Supporting Information, there is no evident correlation trend between MAO A/B inhibition data and lipophilicity calculated by the expert system implemented in ChemDraw for compounds achieving finite IC50 values.
Log k’ values (k’=(tr‐t0)/t0) and purity determinations were carried out using a Phenomenex Gemini C18 4.6×150 mm, with 3 μm size particles, built on a Waters double pump HPLC system in isocratic conditions. Injection volumes were 10 μL, flow rate was 0.5 mL/min, and detection was performed with UV (λ=254 and 370 nm). Samples were prepared by dissolving 0.1 mg/mL of the solute in 10 % v/v DMSO and 90 % v/v methanol. Retention times (tr) were measured at least from three separate injections, and dead time (t0) was the retention time of deuterated methanol. The mobile phase was filtered through a Supelco Nylon‐66 membrane 0.45 μm (Merck Life Science Srl, Milan, Italy) before use. For each reference compound, the average tr of three consecutive injections of 10 μL of sample was used to calculate the log k’ values. The eluent consisted of five different mixtures of methanol and PBS buffer 10 mM at pH 7.4, with methanol/buffer ratios ranging from 80 : 20 to 60 : 40 v/v.

SH-SY5Y cells = test: DCF-DA assay of ROS production induced by dopamine in SH-SY5Y cells; format: cell-based, human; conditions: 10 nM dopamine + 10 nM compound
Protocol: The immortalized neuroblastoma cells are a widely used model for neuroprotection assays, while dopamine at a concentration of 10 nM acts as an inducer of oxidative stress,[8, 9] being metabolized by MAOs to form hydrogen peroxide. Once hydrolyzed and oxidized, DCF acts as the fluorescing probe of the oxidative stress (OS) state of cells. In the presence of an antioxidant, or even of a MAO inhibitor, ROS burden is lowered and DCF fluorescence decreased. […] Its activity is superimposable to that of phenelzine, a nonselective MAO inhibitor used as a positive control in this test.[10] The same experiment performed on dantrolene in our previous work gave similar results.[1]
Reagents for cell cultures were purchased from Life Technologies (ThermoFisher Scientific, Waltham, MA, USA) unless otherwise stated. […]
ROS production in SH‐SY5Y cell line was detected using Cellular Reactive Oxygen Species Detection Assay Kit ab186027 (Abcam, Cambridge, UK), as previously described.[1] […] After incubation and washing, DCF‐DA was added, the plate was incubated, washed again with PBS, and the fluorescence read every 15 min in a 60 min time interval at 535 nm (excitation at 485 nm) using the Tecan Infinite M1000 Pro plate reader.

[3] = Hydrolytic stability in buffered solution (PBS pH 7.4, 37 °C); format: physicochemical; conditions: 20 μM in 10 mM PBS pH 7.4, 37 °C, 6 h incubation
Protocol: The hydrolytic stability of some representative imino/hydrazone/hydrazide derivatives was determined in buffered aqueous media. […]. […]. The hydrolytic degradation of 9 in its starting reagents was confirmed by the comparison of the chromatograms of 9 and 2‐chloro‐4‐hydroxyaniline, obtained in the same chromatographic conditions (Figure 6B).
Stability studies in buffered solution were performed following an already described procedure,[23] on a Phenomenex C18 column (150×4.6 mm i.d., 3 μm particle size; Phenomenex, Castel Maggiore, Italy) using a mobile phase consisting of a mixture of methanol‐water (75 : 25 v/v, with aqueous formic acid 0.1 %). The used flow rate was 0.500 mL/min while the injection volume was 20 μL. Wavelength of UV‐Vis detector was adjusted at 254 nm. The chemical stability was evaluated in a phosphate buffer solution pH 7.4 (10 mM HPO4 ^2−/H2PO4 ^−; 100 mM NaCl) at 37 °C. Five different concentrations from 0.5 μM to 20 μM were studied in a 2 h time range (data not shown). Each concentration (0.5, 1, 5, 10 and 20 μM) was tested in triplicate starting from 3 different stocks solution (1 mM) prepared separately. The time range was extended to 6 h only for the samples at 20 μM concentration (Figure 6a).

hMAO B [4] = target: T1, hMAO B; set-up: method as in PMID 31775359; conditions: cited from earlier work

Row | Compound | IC50 (hMAO B [1]) [nM] | mechanism of hMAO B inhibition (hMAO B [1]; Michaelis-Menten / Lineweaver-Burk) | selectivity for MAO B over MAO A (hMAO B [1]; from IC50 values) [fold] | Ki (hMAO B [1]; inhibition kinetics without preincubation, kynuramine substrate) [nM] | IC50 (hMAO A) [nM] | inhibition at 10 µM (hAChE) [%] | log k’ (logarithm of capacity factor, RP-HPLC) [2] | reduction of ROS oxidation of DCF (SH-SY5Y cells) | degradation percentage [3] [%] | Ki human MAO B (hMAO B [4])
1 | N#Cc1ccc(-c2ccc(/C=N/c3ccc(O)cc3Cl)o2)cc1 [Compound 9] | 680 ± 50 | competitive | 5 | 500 ± 60 | 3460 ± 250 | 30 | 0.782 | effective in reducing ROS oxidation of DCF | 76 | 
2 | O=C1CN(/N=C/c2ccc(-c3ccc([N+](=O)[O-])cc3)o2)C(O)=N1 [DAN, Dantrolene] |  |  |  |  |  |  | 0.115 |  |  | low micromolar range
